Laboratory results: US9732084B2, “Pyrrolobenzodiazepines used to treat proliferative diseases” (priority 2010, dated 2017)

What was measured:
Assay type in all cases: cell-based
786-O [1] = experiment: Alternative cell assay (Cell Titer Glo cytotoxicity); settings: Homo sapiens, 786-0, 786-O cells, 48 hours
Description: (§1) Cells were plated in 150 μL growth media per well into black-sided clear-bottom 96-well plates (Costar, Corning) and allowed to settle for 1 hour in the biological cabinet before placing in the incubator at 37° C., 5% CO2. The following day, 4× concentration of drug stocks were prepared, and then titrated as 10-fold serial dilutions producing 8-point dose curves and added at 50 μl per well in duplicate. Cells were then incubated for 48 hours at 37° C., 5% CO2. Cytotoxicity was measure by incubating with 100 μL Cell Titer Glo (Promega) solution for 1 hour, and then luminescence was measured on a Fusion HT plate reader (Perkin Elmer). Data was processed with Excel (Microsoft) and GraphPad (Prism) to produce dose response curves and IC50 values were generated and data collected.

BxPC-3 = experiment: as above; settings: Homo sapiens, BxPC-3 cells, 48 hours
Description: as §1

HEL = experiment: as above; settings: Homo sapiens, HEL cells, 48 hours
Description: as §1

MCF-7 [2] = experiment: as above; settings: Homo sapiens, MCF7, MCF-7 cells, 48 hours
Description: as §1

HL-60 = experiment: as above; settings: Homo sapiens, HL-60 cells, 48 hours
Description: as §1

Caki-1 [3] = experiment: as above; settings: Homo sapiens, Caki-1 cells, 48 hours
Description: as §1

786-O [4] = experiment: Free drug in vitro cytotoxicity (resazurin); settings: Homo sapiens, 786-0, 786-O cells, 96 hours
Description: (§2) Cells as detailed below were collected and plated in 96 well black-sided plates at a density of 10,000 cells/well in 150 μL of medium. Serial dilutions of the test article (50 μL) were added, and incubation was carried out for 92 hours at 37° C. After addition of test compound, cultures were incubated to 96 hours at 37° C. Resazurin (0.25 mM, 50 μL, Sigma, St. Louis, Mo.) in medium was added and incubation was continued for 4 h. The plates were read on a Fusion HT microplate reader (Packard, Meriden, Conn.) using an excitation wavelength of 525 nm and an emission wavelength of 590 nm. Data from all assays were reduced using GraphPad Prism Version 4 for Windows (GraphPad Software, San Diego, Calif.). The IC50 concentrations compared to untreated control cells were determined using a 4 parameter curve fits.

MCF-7 [5] = experiment: Free drug in vitro cytotoxicity (resazurin); settings: Homo sapiens, MCF7, MCF-7 cells, 96 hours
Description: as §2

TF1a = experiment: Free drug in vitro cytotoxicity (resazurin); settings: TF-1a, TF1a cells, 96 hours
Description: as §2

Caki-1 [6] = experiment: Free drug in vitro cytotoxicity (resazurin); settings: Homo sapiens, Caki-1 cells, 96 hours
Description: as §2

COc1cc2c(cc1OCCCOc1cc3c(cc1OC)C(=O)N1C=C(c4ccc(N)cc4)C[C@H]1C=N3)N=C[C@@H]1CC(C)=CN1C2=O [Compound 11, (S)-2-(4-aminophenyl)-7-methoxy-8-(3-((S)-7-methoxy-2-methyl-5-oxo-5,11a-dihydro-1H-pyrrolo[2,1-c][1,4]benzodiazepine-8-yloxy)propoxy)-1H-pyrrolo[2,1-c][1,4]benzodiazepine-5(11aH)-one]
IC50 (786-O [1]): 0.85 nM | IC50 (BxPC-3): 3 nM | IC50 (HEL): 0.06 nM | IC50 (MCF-7 [2]): 7 nM | IC50 (HL-60): 0.1 nM | IC50 (Caki-1 [3]): 0.4 nM | IC50 (786-O [4]): 0.1 nM | IC50 (MCF-7 [5]): 0.2 nM | IC50 (TF1a): 0.07 nM | IC50 (Caki-1 [6]): 0.06 nM

CC=CC1=CN2C(=O)c3cc(OC)c(OCCCCCOc4cc5c(cc4OC)C(=O)N4C=C(c6cccc(N)c6)C[C@H]4C=N5)cc3N=C[C@@H]2C1 [Compound 15, (S)-2-(3-aminophenyl)-8-(5-((S)-2-propenyl-7-methoxy-5-oxo-5,11a-dihydro-1H-pyrrolo[2,1-c][1,4]benzodiazepine-8-yloxy)pentyloxy)-7-methoxy-1H-pyrrolo[2,1-c][1,4]benzodiazepine-5(11aH)-one]
IC50 (MCF-7 [5]): 0.03 nM

COc1cc2c(cc1OCCCOc1cc3c(cc1OC)C(=O)N1C=C(c4cccc(N)c4)C[C@H]1C=N3)N=C[C@@H]1CC(C)=CN1C2=O [Compound 18, (S)-2-(3-aminophenyl)-7-methoxy-8-(3-((S)-7-methoxy-2-methyl-5-oxo-5,11a-dihydro-1H-pyrrolo[2,1-c][1,4]benzodiazepine-8-yloxy)propoxy)-1H-pyrrolo[2,1-c][1,4]benzodiazepine-5(11aH)-one]
IC50 (786-O [4]): 1 nM | IC50 (MCF-7 [5]): 2 nM | IC50 (TF1a): 0.7 nM | IC50 (Caki-1 [6]): 0.6 nM
